“And” between values parts separate entries of the source, which are not always exact repeats. Identical values can stand only once.
Columns and labels:
[1] = tested on: advanced solid tumors; experiment: Tumor response; assay type: in vivo, human
[2] = Steady-state plasma triapine; assay type: in vivo, human; settings: for clearance: human, plasma
[3] = tested on: human ribonucleotide reductase M2 subunit (hRRM2); experiment: Circulating serum hRRM2 by ELISA; assay type: in vivo; settings: during treatment cycles 1 and 2, 21 of 28 patients
[4] = tested on: patients with advanced solid tumors; settings: human, in vivo, 4 weeks
[5] = tested on: tumor cell lines; settings: read-out: in vitro IC50 for tumor cell lines; cited from earlier work
[6] = tested on: patients with advanced solid tumors; experiment: Phase I dose escalation: dose-limiting toxicities, MTD and adverse events
[7] = triapine 0.01–1 mg/mL in 0.9 % sodium chloride, protected from light, room temperature or 2–8°C; cited from earlier work
[8] = cited from earlier work
[9] = of 15 patients with stable disease
[10] = of 30 evaluable patients, triapine + FDR gemcitabine
[11] = of 30 evaluable patients, triapine + FDR gemcitabine, RECIST 1.0
[12] = Arm A and B combined, dose 160, N=2, individual values
[13] = 36 patients, all dose levels, triapine + FDR gemcitabine

Question: Which results are given for `NC(=S)NN=Cc1ncccc1N` [triapine, 3-Aminopyridine-2-carboxaldehyde thiosemicarbazone]?
Answer: median time to progression ([1]; 15 patients with stable disease, 95 % CI 84–115 days): 111 days; disease control rate ([1]; 30 evaluable patients, SD + PR, triapine + FDR gemcitabine): 53%; patients with prolonged stable disease more than 3 months [1, 9]: 12 patients; stable-disease patients who had previously progressed on gemcitabine [1, 9]: 7 patients; partial response (number of patients) [1, 10]: 1 patients; progressive disease (number of patients) [1, 10]: 14 patients; stable disease (number of patients) [1, 10]: 15 patients; partial response [1, 11]: 3%; stable disease [1, 11]: 50%; median time to tumor progression ([1]; patients with SD): ~4 months; Css ([2]; Arm A and B combined, 31 patients, 75 to 160 mg over 24-hour i.v. infusion Day 1, mean ± SD): 400 ± 140 nM; Css ([2]; Arm A and B combined, dose 75, N=5, mean ± SD): 370 ± 50 nM; Css ([2]; Arm A and B combined, dose 90, N=15, mean ± SD): 380 ± 180 nM; Css ([2]; Arm A and B combined, dose 120, N=9, mean ± SD): 440 ± 120 nM; CL [2, 12]: 42.80 L/h; Css [2, 12]: 520 nM and 460 nM; Css (range) ([2]; Arm A, 75 to 160 mg): 240 to 820 nM; Css ([2]; Arm A, all doses 75 to 160 mg, mean ± SD): 430 ± 140 nM; Css ([2]; Arm A, dose 75 (head prints mg/m^2), 24-h i.v. infusion, day 1 cycle 1, N=1): 410 nM; Css ([2]; Arm A, dose 90, 24-h i.v. infusion, N=5, mean ± SD): 450 ± 230 nM; Css ([2]; Arm A, dose 120, 24-h i.v. infusion, N=5, mean ± SD): 390 ± 90 nM; Css ([2]; Arm A, dose 160, 24-h i.v. infusion, N=2, individual values): 520 nM and 460 nM; CL ([2]; Arm A, dose 160, N=2, individual values): 42.80 L/h; Css (range) ([2]; Arm B, 75 to 120 mg): 190 to 720 nM; Css ([2]; Arm B, all doses 75 to 120 mg, mean ± SD): 380 ± 140 nM; Css ([2]; Arm B, dose 75, 24-h i.v. infusion, N=4, mean ± SD): 360 ± 50 nM; Css ([2]; Arm B, dose 90, 24-h i.v. infusion, N=10, mean ± SD): 350 ± 150 nM; Css ([2]; Arm B, dose 120, 24-h i.v. infusion, N=4, mean ± SD): 470 ± 170 nM; mean Css ([2]; females, n = 18): 440 ± 160 nM; clearance ([2]; intravenous, 75 mg, CL, Arm B, dose 75, N=4, mean ± SD): 431 mL/min; clearance ([2]; intravenous, 90 mg, CL, Arm A, dose 90, N=5, mean ± SD): 497 mL/min; clearance ([2]; intravenous, 90 mg, CL, Arm B, dose 90, N=10, mean ± SD): 613 mL/min; clearance ([2]; intravenous, 120 mg, CL, Arm A and B combined, dose 120, N=9, mean ± SD): 596 mL/min; clearance ([2]; intravenous, 120 mg, CL, Arm A, dose 120, N=5, mean ± SD): 653 mL/min; clearance ([2]; intravenous, 120 mg, CL, Arm B, dose 120, N=4, mean ± SD): 560 mL/min; clearance ([2]; intravenous, 160 mg, CL, Arm A, dose 160, N=2, individual values): 635 mL/min; clearance ([2]; intravenous, CL (range), Arm A and B combined, 31 patients, 75 to 160 mg): 226 to 899 mL/min; clearance ([2]; intravenous, CL (range), Arm A, 75 to 160 mg): 226 to 804 mL/min; clearance ([2]; intravenous, CL (range), Arm B, 75 to 120 mg): 265 to 899 mL/min; clearance ([2]; intravenous, CL, Arm A, all doses 75 to 160 mg, mean ± SD): 580 mL/min; clearance ([2]; intravenous, CL, Arm B, all doses 75 to 120 mg, mean ± SD): 561 mL/min; clearance ([2]; iv, CL, Arm A and B combined, 31 patients, 75 to 160 mg over 24-hour i.v. infusion Day 1, mean ± SD): 562 mL/min; mean Css ([2]; males, n = 13): 330 ± 80 nM; variability of Css and CL (coefficient of variation) ([2]; within and between dose groups): approximately 30%; patients with decline in hRRM2 levels [3]: 75%; recommended phase II dose (RP2D) [4]: 90 mg; IC50 [5]: 1000 to 2000 nM; Flu-Like Syndrome, Grade 1/2 [6, 13]: 4 (11) N (%); Flu-Like Syndrome, Grade 3 [6, 13]: 0 N (%); Flu-Like Syndrome, Grade 4 [6, 13]: 0 N (%); Infection, Grade 3 [6, 13]: 3 (8) N (%); Infection, Grade 4 [6, 13]: 0 N (%); MTD (maximum tolerated dose) ([6]; triapine 24-hour infusion immediately followed by gemcitabine 1000 mg/m^2 (100-minute infusion), every 2 weeks of a 4-week cycle): 90 mg; stability of admixture [7]: 96 h

Question: For `Nc1ccn([C@@H]2O[C@H](CO)[C@@H](O)C2(F)F)c(=O)n1` [gemcitabine], which steady-state plasma levels ([8]; gemcitabine at fixed-dose-rate 10 mg/m^2/min) is on record?
Answer: 15 to 20 µmol/L

Question: What about the “plasma gemcitabine concentration above which dFdCTP accumulation is saturated” value ([8]; peripheral blood mononuclear cells and circulating leukemic blasts) of the same compound?
Answer: 15 to 20 µmol/L

Reference: article PMC3646991 (Investigational new drugs, 2012)
